“And” between values parts separate entries of the source, which are not always exact repeats. Identical values can stand only once.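 Test compounds were applied to cells in 96-well plates for 48 hours at 5 doses. GI50 is the concentration that inhibits growth by half. TGI is the concentration that stops growth completely.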
Experiments:
Experiment in all cases: growth of human tumour cells (NCI), 48 h
NCI-H226 lung = system: NCI-H226 lung
SW-620 colon = system: SW-620 colon
SK-MEL-2 melanoma = system: SK-MEL-2 melanoma
PC-3 prostate = system: PC-3 prostate
SF-295 CNS = system: SF-295 CNS
HL-60(TB) leukemia = system: HL-60(TB) leukemia
OVCAR-8 ovarian = system: OVCAR-8 ovarian
MCF7 breast = system: MCF7 breast
T-47D breast = system: T-47D breast
DU-145 prostate = system: DU-145 prostate

Row | SMILES | GI50 (NCI-H226 lung) [µM] | TGI (NCI-H226 lung) | GI50 (SW-620 colon) | TGI (SW-620 colon) | GI50 (SK-MEL-2 melanoma) [µM] | TGI (SK-MEL-2 melanoma) | GI50 (PC-3 prostate) [µM] | TGI (PC-3 prostate) [µM] | GI50 (SF-295 CNS) [µM] | TGI (SF-295 CNS) | GI50 (HL-60(TB) leukemia) [µM] | TGI (HL-60(TB) leukemia) | GI50 (OVCAR-8 ovarian) [µM] | TGI (OVCAR-8 ovarian) | GI50 (MCF7 breast) [µM] | TGI (MCF7 breast) [µM] | GI50 (T-47D breast) [µM] | TGI (T-47D breast) [µM] | GI50 (DU-145 prostate) [µM] | TGI (DU-145 prostate) [µM]
1 | CCN(CC)c1ccc(NC(C(=O)c2ccccc2)c2ccccc2)cc1 (centres undefined) | 1.76 | 3.53 µM | 2.25 µM | 5.93 µM | 3.44 | 16.8 µM | 3.62 | 16.8 | 3.34 | 12.6 µM | 3.24 | 20.9 µM | 3.28 | > 100 µM | 2.23 | 16.6 | 3.35 | 29 | 2.24 | 5.08
2 | Cc1cc(N(CCCl)CCCl)ccc1C=Nc1cccnc1 | 0.306 | 1.79 µM | 61.2 µM | > 100 µM | 7.57 | > 50.1 µM | 22.9 | > 100 | 8.68 | > 95.7 µM | 1.58 | 30 µM | 28.3 | > 100 µM | 1.8 | > 100 | 1.6 | > 73.2 | 4.62 | 42.9
3 | COc1ccc2c(c1)C(=O)c1c-2c(NCCCN(C)C)nc2ccccc12 | 11.6 | 24 µM | 1.45 µM | 2.99 µM | 18.4 | 34.3 µM | 3.53 | 14.2 | 5.13 | 18.9 µM | 2.63 | 12.3 µM | 1.74 | 7.67 µM | 1.54 | 4.05 | 17.8 | 34.2 | 6.67 | 19.5
4 | Cc1c(Cl)cccc1NC(=O)CC1Sc2ccccc2NC1=O (centres undefined) | – | 41.7 µM and 54.8 µM | 11 µM and 26.3 µM | 56.8 µM and 77.3 µM | – | 59.6 µM and 41.9 µM | – | > 86.5 | – | 58.9 µM and > 100 µM | – | 54.2 µM and 49.3 µM | – | 33.3 µM and 43.3 µM | – | > 87 | – | 86.5 | – | > 100
5 | O=S(=O)(c1cccc(C(F)(F)F)c1)N1c2ccccc2-n2cccc2C1c1cccnc1 (centres undefined) | – | > 53 µM | – | > 60.4 µM | – | > 52.2 µM | – | > 52.6 | – | > 100 µM | – | 28.3 µM | – | > 100 µM | – | > 76 | – | > 70.4 | – | > 55.2
6 | CS(=O)(=O)c1nccc(-c2c(-c3cccc(OCc4ccc(F)cc4)c3)nc3sccn23)n1 | 21.6 | > 100 µM | 5.32 µM | > 100 µM | > 100 | > 100 µM | 4.62 | > 28 | > 100 | > 100 µM | 3.43 | > 29.3 µM | 59.9 | > 100 µM | 8.31 | > 100 | 9.52 | > 100 | 1.92 | 3.41
7 | CC1(C)CCC(S(=O)(=O)c2ccc3c(c2)/C(=N\O)c2cc(S(=O)(=O)N4CCC(O)(c5cccc(C(F)(F)F)c5)CC4)ccc2-3)CC1 | 0.0292 | 0.0988 µM | 0.0154 µM | 0.0319 µM | 0.0179 | 0.0364 µM | 0.0238 | 0.0585 | 0.0272 | 0.11 µM | 0.0203 | 0.0681 µM | 0.034 | 0.112 µM | 0.0206 | 0.0485 | 0.0192 | 0.0414 | 0.0319 | 0.115
8 | O=C1Nc2ccc(Cl)cc2/C1=C\c1c(-c2ccc(F)cc2)nc2ccccn12 | 2.07 | 5.21 µM | 3 µM | 11.7 µM | 2.66 | 6.17 µM | 2.43 | 8.36 | 1.87 | 4.23 µM | 1.88 | 4.48 µM | 2.28 | 5.99 µM | 2.71 | 10.7 | 4.35 | 19.6 | 2.67 | 7.15
9 | Cc1ccc(NS(=O)(=O)c2ccc(-c3cnc(C4CC4)o3)cc2)cc1 | 7.37 | 24.5 µM | 2.25 µM | 13.2 µM | 5.06 | 18.8 µM | 3.27 | 16.3 | 2.66 | 12.2 µM | 2.47 | 9.71 µM | 5.24 | 24.3 µM | 1.55 | 14.9 | 2.68 | 11 | 3.99 | 16.5
10 | COc1cc(-c2c3c(cn2S(=O)(=O)c2ccccc2)-c2nc(N)sc2CC3)cc(OC)c1OC | 11.2 | 47.4 µM | 0.39 µM | > 100 µM | 0.596 | 12.7 µM | 0.549 | 25.8 | 0.372 | 3.52 µM | 0.385 | 4.32 µM | 2.4 | 29.2 µM | 0.381 | 21.4 | 0.433 | 20.6 | 1.54 | 41.9
11 | C=CC1CC12C(=O)C1OC2(C)C2C(=O)c3ccccc3C(=O)C12 (centres undefined) | > 76.2 | > 100 µM | 45.3 µM | > 100 µM | > 86 | > 100 µM | 54.7 | > 100 | 23.6 | 59.8 µM | 0.691 | 2.59 µM | > 42.8 | > 85.8 µM | 42.9 | > 76.1 | 51.4 | > 100 | 72.7 | > 100
12 | Cn1ncc2cc(-c3cnc(N)c(Cl)c3N3CCC4(CCNC4=O)CC3)ccc21 | 38.1 | > 100 µM | 21.3 µM | > 100 µM | 39.8 | > 100 µM | 42.1 | > 100 | 31.2 | > 100 µM | 16.8 | 42.6 µM | 39.1 | > 100 µM | 24.6 | > 100 | 15.7 | 84.2 | 52.1 | > 100
13 | COc1ccc2c(c1)Oc1nc(N)c(C#N)c(N)c1C2Sc1ccc(SC)cc1 (centres undefined) | 1.92 | 3.58 µM | – | – | 1.7 | 3.28 µM | 1.77 | 3.27 | 1.81 | 3.34 µM | 1.99 | 5.49 µM | 1.76 | 3.19 µM | 1.83 | 4.5 | 1.94 | 4.91 | 1.79 | 3.19
